Experimental data taken from US20100204202A1, “DRUG FOR ALLEVIATING MOTOR COMPLICATIONS OR PSYCHIATRIC SYMPTOMS OF PARKINSON'S DISEASE” (Asubio Pharma Co., Ltd., priority 2007, published 2010).
Counter-ions that a name gives are not always drawn.

What was measured:
rats = test: Forced swimming method (anti-depressive action); assay type: in vivo, rat
Excerpt: For the test, Crl: CD(SD) male rats supplied by Charles River Japan were used (6 weeks old at start of test). For the forced swimming test, the method of the improved type reported by Lucki et al. (Lucki I., “The forced swimming test as a model for core and component behavioral effects of antidepressant drugs”, Behavioural Pharmacology, 1997, 8, p. 523-532; Cryan J. F. et al., “Assessing antidepressant activity in rodents: recent developments and future needs”, TRENDS in Pharmacological Sciences, 2002, 23, p. 238-245) was used. On day 1, each rat was placed in a cylinder filled with water (height 45 cm×diameter 30 cm, water depth 30 cm, water temperature 23° C., water depth set to depth by which back legs and tail of rat will not touch the bottom). The rat was taken out after 15 minutes. At this time, the immobility period (seconds) of minutes 10-15 (5 minutes) was recorded. Based on the results, the rats were assigned to five groups so that there would be no difference among the groups. On day 2, each rat was placed in a cylinder filled with water the same as day 1 and the immobility period (seconds), swimming behavior period (seconds), and climbing behavior period (seconds) of minutes 0-5 (5 minutes) were measured. Note that the immobility period was defined as the minimum extent of movement for the rat to hold its head above the water, the swimming behavior as the swimming behavior circling around the inside of the cylinder in the horizontal direction, and the climbing behavior as the climbing behavior moving the forelimbs in the vertical direction along the cylinder walls to try to climb them. The tested substance was intraperitoneally administered 15 minutes after the end of swimming on day 1, and 4 hours and 30 minutes before swimming on day 2. Further, for the amount of locomotor activity, a measuring system (shape 48.8×48.8×30 cm, vertical 8 fractions, horizontal 8 fractions, for total of 64 fractions, Biomedica) set in a blacked out soundproof box was used to record the amount of locomotor activity of the rats at minutes 0-15 (15 minutes). Note that the dosages and timings of administration of the tested substances were set in the same way as the forced swimming test and the substance were intraperitoneally administered 24 hours, 4 hours, and 30 minutes before measurement of the amount of locomotor activity.

[1] = test system: Parkinson's disease model rats; test: Levodopa-induced striatal dopamine release and rotational behavior, brain microdialysis in Parkinson's disease model rats; assay type: in vivo, rat; settings: for rotational behavior of the rats: 3 and 10 mg/kg i.p.
Protocol: For preparing Parkinson's disease model rats by unilateral nigrostriatal dopamine nerve destruction, Crl: CD (SD) male rats supplied by Charles River Japan (8 weeks old at start of test) were used. About 30 minutes before injection of 6-hydroxydopamine, the norepinephrine reuptake inhibitor desipramine (25 mg/kg) was intraperitoneally administered, then the rat head was fixed to a brain stereotaxic apparatus under anesthesia by intraperitoneal administration of pentobarbital (40 mg/kg). 6-hydroxydopamine (total amount 8 μg/4 μL) including ascorbic acid was dissolved in physiological saline, then was injected at two locations of the right medial forebrain bundle (at 1.8 mm posterior to the bregma, 2.0 mm right-lateral to the median line and 8.3 mm ventral to the surface of the skill and 4.5 mm to the rear from the bregma, 1.4 mm to the right from the midline, and a depth of 8.5 mm from the cranium) through a microinjection syringe at a flow rate of 1.0 μL/min over 4 minutes, then was allowed to stand for 5 minutes. To confirm the success of dopamine nerve destruction after about 3 weeks from the above surgery, the rotational behavior of the rats after subcutaneous administration of the dopamine receptor agonist apomorphine (0.05 mg/kg) was measured using a rotational behavior-measuring equipment (Rotameter 6ch System, Muromachi Kikai Co., Ltd.). Rats rotating over 100 times in the opposite direction to the injection in the one hour right after apomorphine administration were judged to have unilateral nigrastriatal dopamine nerve destruction and were used for the subsequent tests.
Furthermore, from about one week later, the rats were given repeated intraperitoneal administration of levodopa (25 mg/kg)+peripheral dopa-decarboxylase inhibitor benserazide (10 mg/kg) (hereinafter referred to as “repeated doses of levodopa”) (twice a day, from Monday to Friday) for 6 weeks.
For the brain microdialysis guide cannule insertion surgery, under anesthesia by pentobarbital (40 mg/kg intraperitoneal administration), the head of each rat was fixed on a brain stereotaxic apparatus, then a brain microdialysis guide cannule (Carnegie Medicin PC12 guide cannule) was inserted into the right striatum (0.5 mm in front of the bregma, 3.0 mm from the midline to the right, and 4.0 mm deep from the cranium) and dental cement was used to fix it to the rat skull. […] The obtained dialysate was immediately measured for dopamine concentration using a high performance liquid chromatography system with an electrochemical detector (LC-ECD). Further, every 30 minutes after levodopa administration, the number of rotations in 5 minutes to the side opposite to the 6-hydroxydopamine injection side was visually measured. […]

[2] = Solubility (choice of solvent); assay type: physicochemical; settings: physiological saline
Protocol: Note that the SUN […] was subcutaneously administered right before levodopa administration, the sarizotan was orally administered about 20 minutes before levodopa dosage in accordance with above-mentioned known reports (Bibbiani F. et al., Neurology, 2001, 57, p. 1829-1834), and the Example Compound 4 of Japanese Patent Publication No. 2005-298402A was subcutaneously administered about 30 minutes before levodopa dosage in accordance with the above-mentioned Japanese Patent Publication No. 2005-298402A. Further, for the solvent, for SUN […] and Example Compound 4 of Japanese Patent Publication No. 2005-298402A, physiological saline was used.

solubility (in words) [2]	SMILES	immobility period (rats; 0.3, 1 and 3 mg/kg i.p., minutes 0-5 on day 2)	swimming behavior period (rats; 1, 3 mg/kg i.p.)	increase of the amount of striatal dopamine release due to levodopa ([1]; 3 and 10 mg/kg i.p. 20 minutes before levodopa 25 mg/kg, week 6 of repeated levodopa)	peak time of the amount of dopamine release ([1]; 3 and 10 mg/kg i.p. before levodopa)	rotational behavior of the rats ([1]; 150 to 210 minutes after levodopa dosage)	rotational behavior of the rats ([1]; 30 minutes after levodopa administration)
–	O=C1c2ccccc2OC=C(Cl)N1CCCCN1CC=C(c2ccccn2)CC1 [SUN N4057, 3-chloro-4,5-dihydro-4-{4-[4-(2-pyridyl)-1,2,3,6-tetrahydropyridin-1-yl]butyl}-1,4-benzoxazepin-5-one.dihydrochloride-dihydrate]	significant shortening of the immobility period	significant increase	inhibitory action	delayed	increase	decreased
poor in solubility	Cl.Cl.Fc1ccc(-c2cncc(CNC[C@H]3CCc4ccccc4O3)c2)cc1 [Sarizotan, 1-[(2R)-3,4-dihydro-2H-chromen-2-yl]-N-{[5-(4-fluorophenyl)pyridin-3-yl]methyl}methanamine dihydrochloride]	–	–	–	–	–	–
